Reference: US11166942B2 (PRAXIS BIOTECH LLC, priority 2018, dated 2021)
Like-named read-outs stand apart in the source and are kept apart here.

Columns and labels:
ATF4 = ATF4 expression inhibition assay (ATF4 5'UTR luciferase reporter, Tg-stressed HEK293T cells); type: cell-based, human; conditions: Homo sapiens, HEK-293T, 3 h; for inhibition at 0.1 µM: read-out: % ATF4 inhibition at 100 nM; for IC50: read-out: ATF4 inhbition IC50; for inhibition at 1 µM: read-out: % ATF4 inhibition at 1 μM
Protocol: The ATF4 reporter was prepared by fusing the human full length 5′UTR of ATF4 (NCBI Accession No. BC022088.2) upstream of the firefly luciferase coding sequence lacking the initiator methionine. The fused sequence was cloned into pLenti-EF1a-C-Myc-DDK-IRES-Puro cloning vector (Origen #PS100085) using standard methods. Virus production was carried out by using Lenti-X™ Packaging Single Shots Protocol (Clonetech #631276). Viral particles were used to transduce HEK293T cells (ATCC #CRL-3216, ATCC Manassas, Va.), which were subsequently selected with puromycin to generate stable cell line. Cells were maintained at 37° C. and 5% CO2 in DMEM-F12 (Hyclone #SH30023.02) supplemented with 10% heat-inactivated fetal bovine serum (Gibco #16000-044), 2 mM L-glutamine (Gibco #25030-081), 100 U/ml penicillin, and 100 μg/ml streptomycin (Gibco #15140-122).
HEK293T cells carrying the ATF4 luciferase reporter were plated on 96-well plates (Nunc) at 10,000 cells per well. Cells were treated two days after seeding with 100 nM thapsigargin (Tg) (Sigma-Aldrich #T9033) in the presence of 100 nM or 1 μM. For the assessment of the half-maximal inhibitory concentration (IC50) for selected compounds, dose-response assays were performed. Compounds were serially diluted using DMSO ranging from 0.1 nM to 1 μM. Cells without treatment or cells treated with Tg alone were used as controls. Assay plates containing cells were incubated for 3 hours at 37° C.
Luciferase reactions were performed using Luciferase Assay System (Promega #E1501) as specified by the manufacturer. Luminescence was read with an integration time of 1 s and a gain of 110 using a Cytation-5 multi-mode microplate reader (BioTek). Relative luminescence units were normalized to Tg treatment (0% inhibition) and untreated cells (100% inhibition) and the percentage of ATF4 inhibition was calculated.
Percentages of ATF4 inhibition after induction with Tg in the presence of 100 nM or 1 μM of certain test compounds are shown in Table 2. Also shown in Table 2 is the calculated IC50 for certain test compounds. […] Accordingly, inhibition of ATF4 expression as a result of the test compound indicates suppression of the ISR pathway.

[1] = test system: Chinese hamster ovary (CHO) cells; experiment: Protein translation assay (puromycin labelling, CHO cells); type: cell-based; conditions: media alone = 100%; for activity at 1 µM: Cricetulus griseus, CHO; for % Recovery of protein expression (100 nM test compound): 100 nM compound
Protocol: Chinese hamster ovary (CHO) cells were maintained at 37° C. and 5% CO2 in Dulbecco's Modified Eagle's Media (DMEM) supplemented with 10% fetal bovine serum, 2 mM L-glutamine, 100 U/ml penicillin, and 100 μg/ml streptomycin. After reaching 80% of confluence, cells were detached and seeded on 6 well plates in complete media, allowed to recover overnight and treated for 2 hours with 1 μM of the test compound (to assess protein synthesis levels in unstressed condition), or for 1 hour with 100 nM or 1 μM of the test compound and then co-treated with 300 nM Tg and 100 nM or 1 μM of the test compound (to assess the recovery of protein synthesis in a stressed condition). Cells treated with Tg alone were used as controls.
After the 2 hours treatments, media were replaced by adding 10 μg/ml puromycin (Sigma Aldrich #P8833) in complete media for 30 min. Media were removed and cells were lysed with SDS-PAGE lysis buffer. Lysates were transferred to 1.5 ml tubes and sonicated for 3 min and total protein amount were quantified using BCA Protein Assay Kit (Pierce). Equal amount of protein (30 μg) was loaded on SDS-PAGE gels. Proteins were transferred onto 0.2 μm PVDF membranes (BioRad) and probed with primary antibodies diluted in Tris-buffered saline supplemented with 0.1% Tween 20 (Merck #S6996184 505) and 3% bovine serum albumin (Rockland #BSA-50).
Puromycin (12D10) (Merck #MABE343) and β-actin (Sigma Aldrich #A5441) antibodies were used as primary antibody. A HRP-conjugated secondary antibody (Rockland) was employed to detect immune-reactive bands using enhanced chemiluminescence (ECL Western Blotting Substrate, Pierce). Quantification of protein bands was done by densitometry using ImageJ software.
Percent increase of protein synthesis in unstressed cells (without Tg treatment) in the presence of media alone or certain test compounds is shown in Table 3 The percentage levels were normalized to the media alone condition, which correspond to 100% protein synthesis.
Percent recovery of protein synthesis in stressed cells (with Tg treatment) due to the test compounds at 100 nM or 1 μM is also shown in Table 3. The levels were normalized to the media alone and to Tg alone conditions, which correspond to 100% and 0% respectively.

[2] = 100 nM test compound, 100 nM thapsigargin, 3 hours, HEK293T ATF4 luciferase reporter
[3] = 100 nM thapsigargin, 3 hours, HEK293T ATF4 luciferase reporter
[4] = 1 μM test compound, 100 nM thapsigargin, 3 hours, HEK293T ATF4 luciferase reporter
[5] = 2 h, unstressed CHO cells, 1 μM, 2 hours, read-out: % Protein synthesis in unstressed cells (1 μM test compound)
[6] = CHO cells stressed with 300 nM Tg, 1 μM compound, Tg alone = 0%, read-out: % Recovery of protein expression (1 μM test compound)
[7] = CHO cells stressed with 300 nM Tg, Tg alone = 0%

| SMILES | inhibition at 0.1 µM (ATF4; [2]) [%] | IC50 (ATF4; [3]) [nM] | inhibition at 1 µM (ATF4; [4]) [%] | activity at 1 µM [1, 5] [%] | activity at 1 µM [1, 6] [%] | % Recovery of protein expression (100 nM test compound) [1, 7] [%] | inhibition at 0.1 µM (ATF4) [%] | inhibition at 1 µM (ATF4) [%] | IC50 (ATF4) [nM] |
| --- | --- | --- | --- | --- | --- | --- | --- | --- | --- |
| O=C(COc1ccc(Cl)c(F)c1)NN1CCN(C[C@@H](O)COc2ccc(Cl)c(F)c2)CC1 (single isomer, unassigned) [Compound 50] | 97.2 | 1.93 | 100 | 96.8 | 7.4 | – | – | – | – |
| O=C(COc1ccc(Cl)c(F)c1)NN1CCN(C[C@H](O)COc2ccc(Cl)c(F)c2)CC1 (single isomer, unassigned) [Compound 51] | 79.3 | 19.8 | 100 | 110 | 22.1 | – | – | – | – |
| O=C(COc1ccc(Cl)c(F)c1)NN1CCC(NC[C@@H](O)COc2ccc(Cl)c(F)c2)CC1 (single isomer, unassigned) [Compound 52] | 75.3 | 26.9 | 81.2 | 113 | 75.8 | – | – | – | – |
| O=C(COc1ccc(Cl)c(F)c1)NC1CCN(NC(=O)c2ccc3cc(Cl)ccc3n2)CC1 [Compound 1, 6-chloro-N-(4-(2-(4-chloro-3-fluorophenoxy)acetamido)piperidin-1-yl)quinoline-2-carboxamide] | 93.7 | 3.6 | 97.9 | 112 | 218 | 88.6 | – | – | – |
| O=C(COc1ccc(Cl)c(F)c1)NC1CCN(NC(=O)c2cc3cc(Cl)ccc3o2)CC1 [Compound 2, 5-chloro-N-(4-(2-(4-chloro-3-fluorophenoxy)acetamido)piperidin-1-yl)benzofuran-2-carboxamide] | 87.1 | 18.4 | 97.6 | 87.5 | 123 | 40.2 | – | – | – |
| O=C(COc1ccc(Cl)c(F)c1)NN1CCC(NC(=O)c2ccc3cc(Cl)ccc3n2)CC1 [Compound 3, 6-chloro-N-(1-(2-(4-chloro-3-fluorophenoxy)acetamido)piperidin-4-yl)quinoline-2-carboxamide] | 88.1 | 10.6 | 92.2 | 152 | 190 | 81.6 | – | – | – |
| O=C(COc1ccc(Cl)c(F)c1)NN1CCC(NC(=O)c2cc3cc(Cl)ccc3o2)CC1 [Compound 5, 5-chloro-N-(1-(2-(4-chloro-3-fluorophenoxy)acetamido)piperidin-4-yl)benzofuran-2-carboxamide] | 85.7 | 18.8 | 93.7 | 135 | 110 | −7.1 | – | – | – |
| O=C(COc1ccc(Cl)c(F)c1)NN1CCN(CC(O)COc2ccc(Cl)c(F)c2)CC1 (centres unmarked) [Compound 6, 2-(4-chloro-3-fluorophenoxy)-N-(4-(3-(4-chloro-3-fluorophenoxy)-2-hydroxypropyl)piperazin-1-yl)acetamide] | 75.9 | 30.8 | 83.8 | 97.9 | 105 | 16.7 | – | – | – |
| O=C(COc1ccc(Cl)c(F)c1)NN1CCC(NCC(O)COc2ccc(Cl)c(F)c2)CC1 (centres unmarked) [Compound 8, 2-(4-chloro-3-fluorophenoxy)-N-(4-((3-(4-chloro-3-fluorophenoxy)-2-hydroxypropyl)amino)piperidin-1-yl)acetamide] | – | – | – | 121 | 52.1 | – | 44.2 | 70.9 | 153 |
| O=C(NN1CCN(CC(O)COc2ccc(Cl)c(F)c2)CC1)c1ccc2cc(Cl)ccc2c1 (centres unmarked) [Compound 14, 6-chloro-N-(4-(3-(4-chloro-3-fluorophenoxy)-2-hydroxypropyl)piperazin-1-yl)-2-naphthamide] | – | – | – | 139 | 175 | – | 89.3 | 98.9 | 10.2 |
| O=C(NN1CCN(CC(O)COc2ccc(Cl)c(F)c2)CC1)c1ccc2cc(Cl)ccc2n1 (centres unmarked) [Compound 15, 6-chloro-N-(4-(3-(4-chloro-3-fluorophenoxy)-2-hydroxypropyl)piperazin-1-yl)quinoline-2-carboxamide] | – | – | – | 119 | 248 | – | 87.8 | 100 | 12.4 |
| O=C(COc1ccc(Cl)c(F)c1)NN1CCN(CCCOc2ccc(Cl)c(F)c2)CC1 [Compound 16, 2-(4-chloro-3-fluorophenoxy)-N-(4-(3-(4-chloro-3-fluorophenoxy)propyl)piperazin-1-yl)acetamide] | – | – | – | 66.1 | -5.5 | – | 46.3 | 91.6 | 125 |
| O=C(NN1CCN(CCCOc2ccc(Cl)c(F)c2)CC1)c1ccc2cc(Cl)ccc2n1 [Compound 17, 6-chloro-N-(4-(3-(4-chloro-3-fluorophenoxy)propyl)piperazin-1-yl)quinoline-2-carboxamide] | – | – | – | 117 | 188 | – | 58.6 | 92.7 | 79.1 |
| O=C(NN1CCN(CCCOc2ccc(Cl)c(F)c2)CC1)c1cc2cc(Cl)ccc2o1 [Compound 18, 5-chloro-N-(4-(3-(4-chloro-3-fluorophenoxy)propyl)piperazin-1-yl) benzofuran-2-carboxamide] | – | – | – | 89.3 | 143 | – | 59.1 | 94.6 | 76.3 |
| O=C(NN1CCN(CC(O)COc2ccc(Cl)c(F)c2)CC1)c1cc2cc(Cl)ccc2o1 (centres unmarked) [Compound 19, 5-chloro-N-(4-(3-(4-chloro-3-fluorophenoxy)-2-hydroxypropyl)piperazin-1-yl)benzofuran-2-carboxamide] | – | – | – | 115 | 175 | – | 87.3 | 95.8 | 11.5 |
| O=C(NN1CCN(CC(O)COc2ccc(C(F)(F)F)cc2)CC1)c1ccc2cc(Cl)ccc2n1 (centres unmarked) [Compound 71, 6-chloro-N-(4-(2-hydroxy-3-(4-(trifluoromethyl)phenoxy)propyl)piperazin-1-yl)quinoline-2-carboxamide] | – | – | – | – | – | – | 83.4 | 89.9 | < 100 |
